Patent US20260251625A1, “METHOD FOR DETERMINING THE DEGREE OF OXIDATIVE DEGRADATION OF POLYSORBATE 20 IN AQUEOUS FORMULATIONS” (Boehringer Ingelheim International GmbH, priority 2021, published 2026)

Assay: AAPH-induced oxidative stress of aqueous polysorbate 20 solution, PEG-6-laurate oxidation marker by LC-MS P6L
Type: physicochemical
Conditions: 1.5 mM AAPH
Method: Specifically, oxidative stress is applied to the aqueous polysorbate 20 solution using 1.5 mM 2,2′-azobis-2-methyl-propanimidamide, dihydrochloride (AAPH). The details of the sample preparation are explained in the experimental section under chapter “1.1 Materials”, point “c) Sample preparation of artificially stressed polysorbate 20”.
1.5 mM 2,2′-azobis-2-methyl-propanimidamide, dihydrochloride (AAPH) was added to a 0.040 mg/ml aqueous polysorbate 20 solution. The polysorbate 20 solution was stressed for 40 h at 50° C.
1.5 mM 2,2′-azobis-2-methyl-propanimidamide, dihydrochloride (AAPH) was added to a 0.040 mg/ml aqueous polysorbate 20 solution. The polysorbate 20 solution was stressed for 35 h at 50° C. After 0, 1, 3, 8, 12, 24 and 35 h samples were taken from the solution and immediately frozen at −20° C. in order to stop the degradation at each time point. […]
The separated species were then ionized with heated electrospray ionization (HESI) source (Ion Max Ion source with HESI probe, Thermo Fisher Scientific). […] Ions generated were detected in the mass spectrometer (LTQ, Thermo Fisher Scientific). […] PEG-6-laurate was evaluated by generating extracted ion chromatograms (EIC's) out of the full scan data to get peak areas of selected compounds using LCquan™ (Software for quantitative analysis of liquid chromatography).

Substance: polyethylene glycol-6-laurate
- increase of peak eluting at about 18.4 min, AAPH-stressed vs unstressed sample (m/z about 227 amu, 40 h at 50° C.): approximately 3.4 fold
- relative peak area of polyethylene glycol-6-laurate over stress time (reference T0, 50° C., 0-35 h): increase up to the sampling time point T4 (12 h)
